Measurements published in patent US20240003879A1, “METHODS FOR DIAGNOSIS AND MONITORING OF TOXIC EPIDERMAL NECROLYSIS” (INSERM (INSTITUT NATIONAL DE LA SANTÉ ET DE LA RECHERCHE …, priority 2020, published 2024).
Entries after “also recorded” stand apart in the source; their conditions may differ. Like-named read-outs stand apart in the source and are kept apart here.

Key:
[1] = system: TCRαβ Skw3 transfectant C4 (TCR of top clone of patient TEN-15); format: cell-based, human; details: for CD69 expression response of transduced Skw3 cells to drug (in words): transductant from patient TEN-15; for % of CD69 expression in CD3+ transfectants, Concentration 1 / % of CD69 expression in CD3+ transfectants, Concentration 2 / % of CD69 expression in CD3+ transfectants, Concentration 3: transfectant C4, 24 h; for % of CD69 expression in CD3+ transfectants, Concentration 1: Levofloxacin (no drug 6.0) / Metronidazole (no drug 6.3) 25 μg/ml; for % of CD69 expression in CD3+ transfectants, Concentration 2: Levofloxacin (no drug 6.0) / Metronidazole (no drug 6.3) 50 μg/ml; for % of CD69 expression in CD3+ transfectants, Concentration 3: Levofloxacin (no drug 6.0) / Metronidazole (no drug 6.3) 100 μg/ml
From the text: Skw3 cell lines (Leibniz Institute DSMZ, Brunswick, Germany, (50)) were transduced as described previously (51). […] The resulting retroviruses were used to transduce the TCR-defective Skw3 cell line, which also expresses the human CD8 coreceptor. The TCR-transduced cells outgrowing in selective medium were picked, and the expression of the correct TCR α and β was further assessed by flow cytometry, using a FACS-Canto-I device (BD-Biosciences, San Jose, CA, USA). The transduced cells with stable TCR expression were selected for assessment of reactivity and specificity, which was measured by TCR-induced CD69 expression. Skw3 cell lines expressing the cognate TCR α and β chains were cocultured with autologous EBV-transformed B-lymphoblastoid cell lines (52) at 1:2 ratio at 37° C. Tested drugs were added to the cocultures with the indicated concentrations. After 24 h, cells were stained with anti-human CD3 (Biolegend) and anti-human CD69 (Biolegend) and analysed by flow cytometry. […] Experiments were repeated at least 2 times. […] Then, the productive rearranged TCRα and TCRβ chains were transduced into Skw3 cells, a TCR defective lymphoma line (28) (data not shown). After verification of sustained and stable TCR expression (data not shown), transduced Skw3 cells were stimulated with the culprit (or control) drug in presence of autologous Epstein Barr Virus (EBV)-transformed B cells generated from patient's PBMCs. The following day, we measured CD69 expression at the surface of Skw3 cells, as marker for TCR stimulation. […] Heterologous EBV-transformed B cells were also used to stimulate control transductants.

[2] = system: TCRαβ Skw3 transfectant C1 (TCR of top clone of patient TEN-3); format: cell-based, human; details: 24 h with autologous EBV-transformed B cells, no drug 2.3; for % of CD69 expression in CD3+ transfectants, Concentration 2: Allopurinol/Oxypurinol 62.5 μg/ml, Sulfamethoxazole 100 μg/ml; for % of CD69 expression in CD3+ transfectants, Concentration 3: Allopurinol/Oxypurinol 250 μg/ml, Sulfamethoxazole 200 μg/ml
From the text: (§1) In brief, rearranged human variable TCR α- and β genes identified by TCR sequencing were synthesized by custom gene synthesis (GeneUniversal, Newark, Delaware, USA) and cloned into retroviral pMSCV Vector (Takara Bio USA Inc, Mountain View, California, USA) containing puromycin and neomycin resistance genes respectively.
(§2) Levels of CD69 expression were monitored in 10,000 CD3^+ events. Experiments were repeated at least 2 times.
(§3) Skw3 cell lines engineered for the expression of TCRs bearing Vα and Vβ chains from top clones found in patients TEN-3,-7,-10 and -15 were stimulated in vitro with EBV-transformed B cells in presence of graded doses of different drugs, or left unpulsed. […] Results from control transductants generated from Abacavir- (17D), Allopurinol-(AnWeAl) or Sulfamethoxazole- (UNO H13) allergic donors (53) (51) (7) are also shown. Bold and underlined values indicate >2 or >1.5 CD69 expression fold increase versus unpulsed cultures.

human CD38+CD8+ T cells = assay: Model of graft versus host versus disease (GVHD): NGS mice reconstituted with PBMCs from a healthy donor; format: in vivo, mouse
From the text: NGS mice were reconstituted with 10×10^6 PBMCs from a healthy donor, and treated by two-weekly injections of an anti-CD38+ mAb (Daratumumab, at 100 or 300 microg/mouse). Control group received PBS. Results depict the percentage +/−SD of CD38+ fraction among human CD8+ T cells present in the spleen, as evaluated by flow cytometry 28 days after PBMCs injection.
NGS mice were reconstituted with 10×10^6 PBMCs from a healthy donor, and treated by two-weekly injections of an anti-CD38+ mAb (Daratumumab, at 100 or 300 microg/mouse). Control group received PBS. The percentage of humanization was measured by flow cytometry at day 5 and at day 12 after PBMC injection. It was calculated by dividing the percentage of human blood CD45+ cells/the percentage of total (mouse+human) blood CD45+ cells.
To this end, NGS mice were reconstituted with 10×10^6 peripheral blood mononuclear cells (PBMCs) from a healthy donor, and treated by two-weekly injections of daratumumab (at 100 or 300 microg/mouse). Control group received PBS. Reconstitution is generally assessed by measuring the ratio of humanization (calculated by dividing the % of human blood CD45+ cells/the % of […]). A high ratio of humanization (>50-60%) classically correlates with the appearance of GVHD symptoms, approximately 1 month after transfer.

[3] = system: cytotoxic CD8+CD38+ T cells; assay: TEN preclinical model: NSG mice transferred with PBMCs from a TEN patient and given lamotrigine; daratumumab evaluation; format: in vivo, mouse; details: for depletion of already expanded CD38+ cells (CD8+CD38+ T cells) / depletion of cytotoxic CD8+CD38+Granzyme B+Granulysin+ T cell subset: curative mode: injections from day 29; for depletion of already expanded CD38+ cells (CD8+CD38+ T cells): blood (FIG. 16); for depletion of cytotoxic CD8+CD38+Granzyme B+Granulysin+ T cell subset: blood (FIG. 17); for formation/expansion of cytotoxic CD8+CD38+Granzyme B+Granulysin+ T cell subset: blood (FIG. 15A); for formation/expansion of CD4+CD38+ and CD8+CD38+ T cells: preventive mode: i.p. 200 mg twice weekly from day 4, blood and spleen, throughout the protocol, versus control isotype (FIG. 13); for depletion of cytotoxic cells expressing the TCRVbeta7.1+ chain (CD8+Vbeta7.1+ T cells): spleen at day 31, versus isotype-treated controls (FIG. 12)
Experimental: (§4) NSG animals were adoptively transferred at day 0 with 1.10^6 millions PBMCs collected from a TEN patient, and successively administrated with lamotrigine (the culprit drug; every day, from day 4. In parallel, NSG mice were injected i.p. with […] of daratumumab or a control isotype twice weekly, starting mAb injections from day 4 (preventive mode). Results depict the kinetic of human CD8+Vbeta7.1+ T cell expansion measured by flow cytometry in the spleen of NSG mice at day 31. Results are expressed as mean and individual % of Vbeta7.1+ cell fraction among total CD8+ T cells. Ten mice per group were used in this experiment. Of note, 3.2% of Vbeta7.1+ cells were detected in CD8+ T cells at the time of cell transfer (day 0).
as §4, with “CD4+CD38+/− and CD8+CD38+/−” for “CD8+Vbeta7.1+”, “blood” for “spleen”, “throughout the protocol.” for “at day 31.”, “number” for “%”, “CD38+(A) and CD38− (B) cells/mL blood.” for “Vbeta7.1+ cell fraction among total CD8+ T cells.”, “experiment.” for “experiment. Of note, 3.2% of Vbeta7.1+ cells were detected in CD8+ T cells at the time of cell transfer (day 0).”
(§5) NSG animals were adoptively transferred at day 0 with 1.10^6 millions PBMCs collected from a TEN patient, and successively administrated with lamotrigine (the culprit drug; or vehicle by oral gavage, every day, from day 4. In parallel, NSG mice were injected i.p. with […] of daratumumab or a control isotype twice weekly, starting mAb injections from day 4 (preventive mode). Results depict the kinetic of human CD4+ and CD8+ T cell expansion measured by flow cytometry in the blood of NSG mice throughout the protocol. Results are expressed as mean and individual number of CD4+ and CD8+ T cells/mL blood. Ten mice per group were used in this experiment.
as §5, with “drug; 0.1 mg/kg/day),” for “drug; or vehicle by oral gavage,”, “human cytotoxic CD8+CD38+/−GranzymeB+Granulysin+” for “human CD4+ and CD8+”, “of CD8+CD38+GranzymeB+Granulysin+” for “of CD4+”, “and CD8+CD38+GranzymeB+Granulysin+ cells/mL blood (A). Details for total CD8+GranzymeB+Granulysin+” for “and CD8+”, “T cells are also shown (B).” for “T cells/mL blood.”
NSG animals were adoptively transferred at day 0 with 1.10^6 millions PBMCs collected from a TEN patient, and successively administrated with lamotrigine (the culprit drug; every day, from day 4. In parallel, NSG mice were injected i.p. with […] of daratumumab or a control isotype twice weekly, starting mAb treatment from day 4 (preventive mode) or from day 29 (curative mode). Results depict the kinetic of human CD8+CD38+/− T cell expansion measured by flow cytometry in the blood of NSG mice throughout the protocol. Results are expressed as mean and individual % of CD38+ and CD38− fractions among total CD8+ T cells. Five mice per group were used in this experiment. […]

[4] = system: Skw3 control transductant 17D (Abacavir-allergic donor); assay: TCR-transductant stimulation assay, control transductant 17D; format: cell-based, human; details: control 17D, 24 h, heterologous EBV-transformed B cells, no drug 1.4
From the text: Skw3 cell lines (Leibniz Institute DSMZ, Brunswick, Germany, (50)) were transduced as described previously (51). […] The resulting retroviruses were used to transduce the TCR-defective Skw3 cell line, which also expresses the human CD8 coreceptor. The TCR-transduced cells outgrowing in selective medium were picked, and the expression of the correct TCR α and β was further assessed by flow cytometry, using a FACS-Canto-I device (BD-Biosciences, San Jose, CA, USA). The transduced cells with stable TCR expression were selected for assessment of reactivity and specificity, which was measured by TCR-induced CD69 expression. Skw3 cell lines expressing the cognate TCR α and β chains were cocultured with autologous EBV-transformed B-lymphoblastoid cell lines (52) at 1:2 ratio at 37° C. Tested drugs were added to the cocultures with the indicated concentrations. After 24 h, cells were stained with anti-human CD3 (Biolegend) and anti-human CD69 (Biolegend) and analysed by flow cytometry. […] Experiments were repeated at least 2 times. […] Heterologous EBV-transformed B cells were also used to stimulate control transductants.

[5] = system: Skw3 control transductant AnWe A1 (Allopurinol-allergic donor); assay: TCR-transductant stimulation assay, control transductant AnWe A1; format: cell-based, human; details: 24 h, heterologous EBV-transformed B cells, no drug 4.3; for % of CD69 expression in CD3+ transfectants, Concentration 2: Allopurinol/Oxypurinol 62.5 μg/ml; for % of CD69 expression in CD3+ transfectants, Concentration 3: Allopurinol/Oxypurinol 250 μg/ml
From the text: as §1, §2, §3

[6] = 300 microg/mouse, 2 times a week

With `Cc1ncc([N+](=O)[O-])n1CCO` [Metronidazole] the “CD69 expression response of transduced Skw3 cells to drug (in words)” value [1] was “failed to respond”, the “CD69 expression response of transduced Skw3 cells to drug (in words)” value ([1]; listed as metronidazole) was “failed to detect robust CD69+ expression” and the “% of CD69 expression in CD3+ transfectants, Concentration 1” value (“% of CD69 expression … Concentration 1” for short) [1] was 5.7%. For the same molecule, the “% of CD69 expression in CD3+ transfectants, Concentration 2” value (“% of CD69 expression … Concentration 2” for short) [1] was 5.4% and the “% of CD69 expression in CD3+ transfectants, Concentration 3” value (shortened to “% of CD69 expression … Concentration 3”) [1] was 6.0%.

`Cc1cc(NS(=O)(=O)c2ccc(N)cc2)no1` [Sulfamethoxazole] was tested, and the “% of CD69 expression … Concentration 2” value [2] was 1.3% and the “% of CD69 expression … Concentration 3” value [2] was 1.4%.

In the case of Daratumumab, the “GVHD development, higher regimen” value (human CD38+CD8+ T cells; [6]) is reported as “failed to prevent GVDH development”, the “T cell expansion, higher regimen” value (human CD38+CD8+ T cells; [6]) is reported as “transiently inhibited T cell expansion” and the “expansion of human cells (ratio of humanization)” value (human CD38+CD8+ T cells; day 12, 7 days after the initial daratumumab injection, blood (FIG. 8)) is reported as “transiently inhibited the expansion of human cells”. For the same molecule, the “expansion of human cells (ratio of humanization)” value (human CD38+CD8+ T cells; day 19, 14 days after the initial daratumumab injection) was “inhibition was lost”, the “development of the GVHD” value (human CD38+CD8+ T cells; day 28, two-weekly injections, 100 or 300 microg/mouse) was “failed to hamper the development of the GVHD” and the “human CD38+CD8+ T cell levels in blood” value (human CD38+CD8+ T cells; murine GVHD model) was “reduction of human CD8+CD38+ T cell levels in blood; also recorded: reduction of human CD38+CD8+ T cells levels in blood”. The “depletion of CD38+ cells (CD38+ fraction among human CD8+ T cells)” value (human CD38+CD8+ T cells; two-weekly injections, 100 or 300 microg/mouse, spleen, flow cytometry, 28 days after PBMCs injection (FIG. 7), preliminary experiments) was “depleted CD38+ cells”, the “depletion of already expanded CD38+ cells (CD8+CD38+ T cells)” value [3] was “acutely depleted the CD38+ cells that have already expanded” and the “depletion of already expanded CD38+ cells (CD8+CD38+ T cells)” value ([3]; listed as Daratumamub) was “efficiently depleted”. The “depletion of cytotoxic CD8+CD38+Granzyme B+Granulysin+ T cell subset” value [3] was “acutely depleted”, the “depletion of cytotoxic CD8+CD38+Granzyme B+Granulysin+ T cell subset” value ([3]; listed as Daratumamub) was “efficiently depleted” and the “expansion of T cell subsets which do not express CD38 marker” value ([3]; preventive mode, from day 4 (FIG. 13B)) was “did not avoid the progressive expansion of some T cell subsets”. The “formation/expansion of cytotoxic CD8+CD38+Granzyme B+Granulysin+ T cell subset” value ([3]; preventive mode, from day 4) was “preventing the formation of cytotoxic CD8+CD38+Granzyme B+Granulysin+ T cell subset”, the “formation/expansion of cytotoxic CD8+CD38+Granzyme B+Granulysin+ T cell subset” value ([3]; preventive mode, from day 4, listed as Daratumamub) was “strongly inhibited the expansion” and the “accumulation of cytotoxic T cells (total CD8+GranzymeB+Granulysin+)” value ([3]; preventive mode, from day 4, blood (FIG. 15B)) was “severely impaired the accumulation of cytotoxic T cells”. The “global T cell expansion (CD4+ and CD8+ T cells/mL blood)” value ([3]; preventive mode, from day 4, versus control isotype (FIG. 14)) was “Lower expansion; also recorded: dramatically delayed and impaired the global T cell expansion”, the “formation/expansion of CD4+CD38+ and CD8+CD38+ T cells” value [3] was “efficiently and extensively prevented the formation of CD4+CD38+ and CD8+CD38+ T cells” and the “formation/expansion of CD4+CD38+ and CD8+CD38+ T cells” value ([3]; listed as Daratumamub) was “blocked the expansion”. The “depletion of cytotoxic cells expressing the TCRVbeta7.1+ chain (CD8+Vbeta7.1+ T cells)” value ([3]; preventive mode) was “strong depletion” and the “depletion of cytotoxic cells expressing the TCRVbeta7.1+ chain (CD8+Vbeta7.1+ T cells)” value ([3]; preventive mode, listed as Daratumamub) was “preferentially depleted”.

For `C[C@H]1COc2c(N3CCN(C)CC3)c(F)cc3c(=O)c(C(=O)O)cn1c23` [Levofloxacin], the “% of CD69 expression … Concentration 1” value [1] was 5.6%, the “% of CD69 expression … Concentration 2” value [1] was 5.4% and the “% of CD69 expression … Concentration 3” value [1] was 4.4%.

With `Nc1nc(NC2CC2)c2ncn([C@H]3C=C[C@@H](CO)C3)c2n1` [Abacavir] the “% of CD69 expression … Concentration 1” value ([4]; Abacavir 1 μg/ml, Pantoprazole 12.5 μg/ml) was 93.2%, the “% of CD69 expression … Concentration 2” value ([4]; Abacavir 10 μg/ml, Pantoprazole 25 μg/ml) was 88.9% and the “% of CD69 expression … Concentration 3” value ([4]; Abacavir 20 μg/ml, Pantoprazole 50 μg/ml) was 93.1%.

With `O=c1[nH]c(=O)c2c[nH]nc2[nH]1` [Oxypurinol] the “% of CD69 expression … Concentration 2” value [5] was 5.0%, the “% of CD69 expression … Concentration 3” value [5] was 5.75% and the “% of CD69 expression … Concentration 2” value [2] was 22.9%. For the same molecule, the “% of CD69 expression … Concentration 3” value [2] was 39.6%.

`Oc1ncnc2[nH]ncc12` [Allopurinol] was tested, and the “% of CD69 expression … Concentration 2” value [5] was 17.1%, the “% of CD69 expression … Concentration 3” value [5] was 26.4% and the “% of CD69 expression … Concentration 2” value [2] was 2.2%. For the same molecule, the “% of CD69 expression … Concentration 3” value [2] was 3.05%.
